{
  "source": "paper PMC7915867",
  "about": "“Discovery of a Small Molecule Inhibitor of Human Adenovirus Capable of Preventing Escape from the Endosome” (International Journal of Molecular Sciences, 2021)",
  "key": {"HAdV5-GFP [1]": {"system": "HAdV5-GFP", "assay": "microbe, parasite or virus in culture", "format": "cell-based, human adenovirus", "settings": "for inhibition at 10 µM / IC50: Human adenovirus sp.; for inhibition at 10 µM: read-out: Plaque Assay (10 μM) (%) Inhibition; for IC50: read-out: Plaque Assay IC50", "protocol": "Compounds were measured at concentrations of 10 μM and in a dose−response assay ranging from 10 to 0.3 μM using low MOI infections (0.06 vp/cell) in a plaque assay. […] Cells were infected with HAdV5-GFP (0.06 vp/cell) and rocked for 2 h at 37 °C, when cells reached 80%–90% confluency. When the incubation was finished, the inoculum was removed followed by washing the cells once with PBS. […] The compounds were also added to the mixture in concentrations ranging from 10 to 0.3 μM. After incubation for 7 days at 37 °C, we scanned plates with a Typhoon FLA 9000 imager (GE Healthcare Life Sciences, MA, USA) and quantified plaques with ImageJ [47]."}, "wild-type HAdV5 [2]": {"system": "wild-type HAdV5", "assay": "Virus yield reduction (virus burst assay)", "format": "cell-based, human adenovirus", "settings": "for Virus Yield Reduction: A549 cells, HAdV 100 vp/cell, 48 h, niclosamide 5 μM, 16 at 10-fold IC50, versus DMSO", "protocol": "After 48 h, cells were harvested and subjected to three rounds of freeze/thaw. Serial dilutions of clarified lysates were titrated on A549 cells (3 × 10^4 cells/well), and we calculated TCID50 values using an endpoint dilution method."}, "HAdV-5 DNA replication": {"system": "HAdV-5 DNA replication", "assay": "HAdV DNA quantification by real-time PCR (DNA replication)", "format": "cell-based, human adenovirus", "protocol": "All samples were carried out in duplicate. After incubation for 24 h at 37 °C, DNA was purified from the cell lysate with the E.Z.N.A.® Tissue DNA Kit (Omega Bio-tek, Norcross, GA, USA) following the manufacturer’s instructions. TaqMan primers and probes for a common region of the HAdV5 hexon were designed with the GenScript Real-Time PCR (TaqMan) Primer Design software (GenScript, Leiden, Netherlands). Oligonucleotides sequences were: AQ1: 5′-GCCACGGTGGGGTTTCTAAACTT-3′; AQ2: 5′-GCCCCAGTGGTCTTACATGCACAT-3′; Probe: 6-FAM-5′-TGCACCAGACCCGGGCTCAGGTACTCCGA-3′-TAMRA. Real-time PCR mixtures contained 9.5 μL of the purified DNA, AQ1 and AQ2 at a concentration of 200 nM each and Probe at a concentration of 50 nM in a total volume of 25 μL. The PCR cycling protocol was 95 °C for 3 min followed by 40 cycles of 95 °C for 10 s and 60 °C for 30 s. Human glyceraldehyde-3-phosphate dehydrogenase (GAPDH) gene was applied as internal control. Oligonucleotides sequences for GAPDH and conditions were previously reported by Rivera et al..\nFor quantification, gene fragments from hexon and GAPDH were cloned into the pGEM-T Easy vector (Promega, MA, USA), and known concentrations of template were used to produce a standard curve in parallel for each experiment. All assays were done in thermal cycler LightCycler® 96 System (Roche, Basel, Switzerland)."}, "HAdV5": {"system": "HAdV5", "assay": "HAdV-mediated endosome disruption (α-sarcin co-delivery assay)", "format": "cell-based, human adenovirus", "settings": "A549 cells", "protocol": "A549 cells (~20,000 cells/well) were incubated in DMEM without cysteine or methionine supplemented with 10% dialyzed FBS [DMEM (−)] in black 96-well plates for 1 h before infection. […] The medium was then removed and replaced with 50 μL DMEM (−) containing 0.1 mg/mL α-sarcin (Santa Cruz Biotechnology, Dallas, TX, USA) and the virus and drug mixtures. After 2 h at 37 °C, the Click-iT HPG Alexa Fluor 488 Protein Synthesis Assay Kits (Invitrogen, MA, USA) were used to analyze protein synthesis according to the manufacturer’s instructions. The incorporation of the amino acid analog of methionine L-homopropargylglycine (HPG) containing Alexa Fluor 488 azide was measured using a Typhoon 9410 imager (GE Healthcare Life Sciences, MA, USA) and calculated subtracting the background level of the control well containing L-homopropargylglycine (HPG) and α-sarcin but not virus (100% incorporation)."}, "[3]": {"assay": "Cytotoxicity assay (AlamarBlue)", "format": "cell-based", "settings": "human, A549 cells, A549 cell line", "protocol": "The cytotoxicity of these derivatives was tested by commercial kit AlamarBlue® (Ref. DAL1025, Invitrogen, MA, USA). […] The cytotoxic concentration 50 (CC50) value was obtained by using the statistical package GraphPad Prism. This assay was performed in duplicate."}, "wild-type HAdV5 [4]": {"system": "wild-type HAdV5", "assay": "Nuclear-associated HAdV genomes", "format": "cell-based, human adenovirus", "settings": "45 min postinfection, A549 cells, 2000 vp/cell, 10-fold IC50", "protocol": "The nuclear delivery of HAdV genomes was evaluated by real-time PCR following nuclear isolation from infected cells. […] Forty-five minutes after infection, A549 cells were trypsinized, collected, and then washed twice with PBS. After that, we separated cytoplasmic and nuclear fractions using a hypotonic buffer solution and NP-40 detergent and resuspended the cell pellet in 500 μL of 1 × hypotonic buffer (20 mM Tris-HCl pH 7.4, 10 mM NaCl, 3 mM MgCl2). After incubation for 15 min at 4 °C, 25 μL of NP-40 was added and the samples were vortexed. The homogenates were centrifuged for 10 min at 835g and 4 °C. After the removal of the cytoplasmic fraction (supernatant), HAdV DNA was separated from the nuclear fraction (pellet) and from the cytoplasmic fraction using the E.Z.N.A.® Tissue DNA Kit (Omega Bio-tek, Norcross, GA, USA)."}, "HAdV5-GFP [5]": {"system": "HAdV5-GFP", "assay": "Time of addition assay", "format": "cell-based, human adenovirus", "settings": "10-fold IC50; 293β5 cells, HAdV5-GFP 2000 vp/cell"}, "HAdV-GFP": {"system": "HAdV-GFP", "assay": "Thermostability assay (capsid stabilization)", "format": "cell-based, human adenovirus", "settings": "50 μM, A549 cells", "protocol": "HAdV-GFP (37.5 ng) was incubated with compound 16 (50 µM) or the same volume of DMSO for 1 h in complete DMEM. Parallel samples were incubated for 10 min at the indicated temperatures, cooled to r.t., and added to A549 cells on ice to synchronize the infection. After the incubation, cells were washed twice with PBS 1x to remove the nonattached virus and the excess of compound 16 and DMSO. Cells were then incubated for 24 h at 37 °C and 5% CO2 before being visualized for GFP expression in an Olympus inverted microscope Model IX71 (Hamburg, Germany) and analyzed by capturing representative images of each condition using the CellSens Dimension platform (Olympus, Hamburg, Germany)."}, "[6]": {"system": "human cytomegalovirus (HCMV)", "assay": "HCMV DNA replication assay", "format": "cell-based", "settings": "HFF cells, 72 h postinfection, 10-fold IC50 of HAdV plaque assay", "protocol": "The broad antiviral activity of compound 16 was tested using human cytomegalovirus (HCMV) in a DNA replication assay. To avoid the influence of newly generated viral particles from subsequent rounds of infection, HCMV DNA was extracted from HFF cells at 72 h postinfection and quantified in a single round of infection as a measurement of the DNA replication efficiency."}},
  "note": "Several values for one entry are separate records, joined by “and”; a condition that tells them apart may be missing. Identical values can stand only once.",
  "data": [
    {"smiles": "O=C(Nc1ccc([N+](=O)[O-])cc1Cl)c1cc(Cl)ccc1O", "note": "[Compound 3, niclosamide, reference compound]", "values": [
      {"measurement": "inhibition at 10 µM", "setting": "HAdV5-GFP [1]", "result": 100, "unit": "%"},
      {"measurement": "IC50", "setting": "HAdV5-GFP [1]", "result": "600 ± 50", "unit": "nM"},
      {"measurement": "Virus Yield Reduction", "setting": "wild-type HAdV5 [2]", "result": "82 ± 35", "unit": "fold"},
      {"measurement": "Inhibition of HAdV-5 DNA replication (qPCR)", "setting": "HAdV-5 DNA replication; A549 cells, 24 h, HAdV5 100 vp/cell, 16 at 7.8 μM (10-fold IC50), niclosamide 5 μM, versus DMSO", "result": "prevented any detectable DNA replication"},
      {"measurement": "HPG incorporation compared to control without α-sarcin", "setting": "HAdV5; niclosamide 5 μM, independent of virus concentration", "result": "under 50%"}
    ]},
    {"smiles": "O=C(NCC1CCCCC1)c1cc(Cl)ccc1O", "note": "[Compound 16, 5-Chloro-N-(cyclohexylmethyl)-2-hydroxybenzamide]", "values": [
      {"measurement": "Plaque Assay IC50", "setting": "HAdV5-GFP [1]; HAdV5-GFP, low MOI, 293β5 cell line", "result": "submicromolar"},
      {"measurement": "inhibition at 10 µM", "setting": "HAdV5-GFP [1]", "result": 100, "unit": "%"},
      {"measurement": "IC50", "setting": "HAdV5-GFP [1]", "result": "780 ± 10", "unit": "nM"},
      {"measurement": "Selectivity Index (SI)", "setting": "HAdV5-GFP [1]; ratio of CC50 to IC50 in plaque assay", "result": 116.9},
      {"measurement": "CC50 at 48 h", "setting": "[3]", "result": "91200 ± 18400", "unit": "nM"},
      {"measurement": "Virus yield reduction compared to niclosamide", "setting": "wild-type HAdV5 [2]; 16 at 10-fold IC50 versus niclosamide 5 μM", "result": 2.5, "unit": "fold"},
      {"measurement": "Virus Yield Reduction", "setting": "wild-type HAdV5 [2]", "result": "208 fold and 208 ± 108 fold"},
      {"measurement": "inhibition at 7.8 µM", "setting": "HAdV-5 DNA replication; Human adenovirus sp., A549, 24 h, read-out: Inhibition of HAdV-5 DNA replication (qPCR)", "result": 50, "unit": "%"},
      {"measurement": "Inhibition of HAdV DNA accessibility to the nucleus", "setting": "wild-type HAdV5 [4]", "result": "more than 99%"},
      {"measurement": "Inhibition of HAdV infection, compound added at 0 min p.i.", "setting": "HAdV5-GFP [5]", "result": 95.3, "unit": "%"},
      {"measurement": "Inhibition of HAdV infection, compound added at 20 min p.i.", "setting": "HAdV5-GFP [5]", "result": 30.7, "unit": "%"},
      {"measurement": "HAdV-mediated endosome lysis", "setting": "HAdV5; 10-fold IC50, virus below 12 ng", "result": "prevented HAdV-mediated endosome lysis"},
      {"measurement": "GFP expression 24 h postinfection, virus heated to 48 °C", "setting": "HAdV-GFP", "result": "significant levels of GFP expression"},
      {"measurement": "GFP expression 24 h postinfection, virus heated to 52 °C", "setting": "HAdV-GFP", "result": "some residual expression"},
      {"measurement": "Decrease of total HCMV DNA compared to DMSO control", "setting": "[6]", "result": 95, "unit": "%"}
    ]}
  ]
}
